Laboratory results as given in patent publication US20260085053A1, “BENZOFURAN DERIVATIVES AS SIK INHIBITORS AND THE USE THEREOF” (BEONE MEDICINES I GMBH, priority 2023, published 2026).

Assays:
[1] = molecular target: T1, SIK3 kinase (aa59-365, Thermo Fisher) (Homo sapiens, UniProt Q9Y2K2); test: Biochemical activities determination for SIK3 protein (TR-FRET); conditions: 125 uM ATP, 0.5 μM STK1 substrate
T1 construct: SIK3 kinase (aa59-365, Thermo Fisher); purchased Thermo Fisher
Description: 3. Biochemical Activities Determination for SIK3 Protein
Compounds were tested for inhibition of SIK3 kinase (aa59-365, Thermo Fisher) in assays based on the time-resolved fluorescence-resonance energy transfer (TR-FRET) methodology. The assays were carried out in 384-well low volume white plates in a reaction mixture containing SIK3 kinase, 125 uM ATP, 0.5 μM STK1 substrate and 0-10 μM compound in buffer containing 25 mM Tris, 0.01% Trition X-100, 0.5 mM EGTA, 5 mM MgCl2, 2.5 mM DTT, PH=7.5. The kinase was incubated with compound for 60 minutes at room temperature and the reaction was initiated by the addition of ATP and STK1 substrate. After reaction at room temperature for 180 minutes, an equal volume of stop/detection solution was added according to the manufacture's instruction (CisBio Bioassays). The stop/detection solution contained STK Antibody-Cryptate and XL665-conjugated streptavidin (Cat: 62ST1PEC, Cisbio) in Detection Buffer (Cat: 62SDBRDF, Cisbio). Plates were sealed and incubated at room temperature for overnight, and the TR-FRET signals (ratio of fluorescence emission at 665 nm over emission at 620 nm with excitation at 337 nm wavelength) were recorded on a PHERAstar FS plate reader (BMG Labtech). Phosphorylation of STK1 substrate led to the binding of STK Antibody-Cryptate to the biotinylated STK1 substrate, which places fluorescent donor (Eu^3+ crypate) in close proximity to the accepter (Streptavidin-XL665), thus resulting in a high degree of fluorescence resonance energy transfer from the donor fluorophore (at 620 nm) to the acceptor fluorophore (at 665 nm). […] The IC50 for each compound was derived from fitting the data to the four-parameter logistic equation by Dotmatics.

[2] = molecular target: T2, SIK1 kinase (aa1-303, Thermo Fisher) (Homo sapiens, UniProt P57059); test: Biochemical activities determination for SIK1 protein (TR-FRET); conditions: 110 uM ATP, 0.5 μM STK1 substrate
T2 construct: SIK1 kinase (aa1-303, Thermo Fisher); purchased Thermo Fisher
Description: 1. Biochemical Activities Determination for SIK1 Protein
(§1) Compounds were tested for inhibition of SIK1 kinase (aa1-303, Thermo Fisher) in assays based on the time-resolved fluorescence-resonance energy transfer (TR-FRET) methodology. The assays were carried out in 384-well low volume white plates in a reaction mixture containing SIK1 kinase, 110 uM ATP, 0.5 μM STK1 substrate and 0-10 μM compound in buffer containing 25 mM Tris, 0.01% Trition X-100, 0.5 mM EGTA, 5 mM MgCl2, 2.5 mM DTT, pH=7.5. The kinase was incubated with compounds for 60 minutes at room temperature and the reaction was initiated by the addition of ATP and STK1 substrate. After reaction at room temperature for 180 minutes, an equal volume of stop/detection solution was added according to the manufacture's instruction (CisBio Bioassays). The stop/detection solution contained STK Antibody-Cryptate and XL665-conjugated streptavidin (Cat: 62ST1PEC, Cisbio) in Detection Buffer (Cat: 62SDBRDF, Cisbio). Plates were sealed and incubated at room temperature for overnight, and the TR-FRET signals (ratio of fluorescence emission at 665 nm over emission at 620 nm with excitation at 337 nm wavelength) were recorded on a PHERAstar FS plate reader (BMG Labtech). Phosphorylation of STK1 substrate led to the binding of STK Antibody-Cryptate to the biotinylated SIK1 substrate, which places fluorescent donor (Eu^3+ crypate) in close proximity to the accepter (Streptavidin-XL665), thus resulting in a high degree of fluorescence resonance energy transfer from the donor fluorophore (at 620 nm) to the acceptor fluorophore (at 665 nm). […] The IC50 for each compound was derived from fitting the data to the four-parameter logistic equation by Dotmatics.

[3] = molecular target: T3, SIK2 kinase (full length, Thermo Fisher) (Homo sapiens, UniProt Q9H0K1); test: Biochemical activities determination for SIK2 protein (TR-FRET); conditions: 80 uM ATP, 0.5 μM substrate
T3 construct: SIK2 kinase (full length, Thermo Fisher); purchased Thermo Fisher
Description: 2. Biochemical Activities Determination for SIK2 Protein
as §1, with “of SIK2” for “of SIK1”, “kinase (full length,” for “kinase (aa1-303,”, “containing SIK2” for “containing SIK1”, “kinase, 80” for “kinase, 110”, “μM […]” for “μM STK1”, “biotinylated STK1” for “biotinylated SIK1”

T1 sequence (Q9Y2K2 59-365): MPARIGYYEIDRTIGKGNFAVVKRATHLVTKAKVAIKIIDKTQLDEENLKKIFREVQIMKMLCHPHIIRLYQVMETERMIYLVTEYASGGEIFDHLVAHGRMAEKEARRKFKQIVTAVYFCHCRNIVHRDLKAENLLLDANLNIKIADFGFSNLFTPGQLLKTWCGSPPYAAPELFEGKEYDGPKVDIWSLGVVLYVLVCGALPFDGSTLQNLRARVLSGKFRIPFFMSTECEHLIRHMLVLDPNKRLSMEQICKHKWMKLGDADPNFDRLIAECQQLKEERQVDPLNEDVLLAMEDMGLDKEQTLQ
T2 sequence (P57059 1-303): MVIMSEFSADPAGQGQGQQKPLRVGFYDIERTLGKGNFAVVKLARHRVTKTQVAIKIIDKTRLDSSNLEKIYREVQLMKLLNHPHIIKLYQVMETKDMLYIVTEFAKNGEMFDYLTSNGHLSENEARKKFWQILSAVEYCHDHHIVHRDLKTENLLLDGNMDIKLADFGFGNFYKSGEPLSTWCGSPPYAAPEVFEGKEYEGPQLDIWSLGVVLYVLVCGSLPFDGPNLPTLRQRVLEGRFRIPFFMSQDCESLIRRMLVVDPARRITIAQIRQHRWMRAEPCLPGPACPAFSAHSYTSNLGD
T3 sequence (Q9H0K1 whole entry): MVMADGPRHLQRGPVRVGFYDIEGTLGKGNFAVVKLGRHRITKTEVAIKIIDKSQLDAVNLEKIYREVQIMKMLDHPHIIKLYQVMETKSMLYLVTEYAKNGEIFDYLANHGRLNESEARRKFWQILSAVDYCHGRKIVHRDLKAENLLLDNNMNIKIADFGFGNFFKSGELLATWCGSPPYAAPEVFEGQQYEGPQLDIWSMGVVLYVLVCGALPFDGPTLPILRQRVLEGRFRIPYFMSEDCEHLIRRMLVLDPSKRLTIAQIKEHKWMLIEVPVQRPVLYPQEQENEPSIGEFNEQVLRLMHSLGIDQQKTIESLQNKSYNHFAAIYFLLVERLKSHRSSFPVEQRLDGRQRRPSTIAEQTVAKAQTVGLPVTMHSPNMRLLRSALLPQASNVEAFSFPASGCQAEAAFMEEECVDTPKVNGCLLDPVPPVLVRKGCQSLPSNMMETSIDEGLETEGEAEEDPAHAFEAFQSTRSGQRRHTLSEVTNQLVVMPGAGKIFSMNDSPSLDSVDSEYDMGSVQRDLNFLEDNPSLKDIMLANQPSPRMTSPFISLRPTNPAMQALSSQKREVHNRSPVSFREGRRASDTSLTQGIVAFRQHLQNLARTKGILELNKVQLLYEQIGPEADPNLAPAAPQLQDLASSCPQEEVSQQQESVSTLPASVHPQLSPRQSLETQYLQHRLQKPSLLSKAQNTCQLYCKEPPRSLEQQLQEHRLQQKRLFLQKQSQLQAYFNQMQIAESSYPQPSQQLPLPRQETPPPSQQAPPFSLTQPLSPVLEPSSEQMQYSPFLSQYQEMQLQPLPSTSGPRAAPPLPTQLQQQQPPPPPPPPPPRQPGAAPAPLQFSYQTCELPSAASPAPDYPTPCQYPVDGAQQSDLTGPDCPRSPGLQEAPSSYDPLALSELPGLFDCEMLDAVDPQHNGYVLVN

Row | Compound | IC50 [1] [nM] | IC50 [2] [nM] | IC50 [3] [nM]
1 | CN1CC[C@H](COc2cc(-c3coc4cc(OCCN5CCCC5)ccc34)cc(OC(F)F)c2C(=O)NC2CC2)C1 [Compound 116, (S)—N-cyclopropyl-2-(difluoromethoxy)-6-((1-methylpyrrolidin-3-yl)methoxy)-4-(6-(2-(pyrrolidin-1-yl)ethoxy)benzofuran-3-yl)benzamide] | > 10000 | > 10000 | 1120
2 | Cn1cc(-c2ccc3c(-c4ccc(C#N)cc4)coc3c2)cn1 [Compound 32, 4-(6-(1-methyl-1H-pyrazol-4-yl)benzofuran-3-yl)benzonitrile] | 829 | 1880 | 96
3 | COc1cc(-c2coc3cc(-c4cc(C)n[nH]4)ccc23)cc2c1C(=O)N(CC(F)(F)F)CC2 [Example 5, 8-methoxy-6-(6-(3-methyl-1H-pyrazol-5-yl)benzofuran-3-yl)-2-(2,2,2-trifluoroethyl)-3,4-dihydroisoquinolin-1 (2H)-one] | 41 | 538 | 33
4 | CN1CCC(n2cc(-c3ccc4c(-c5cc6c(c(OC(F)F)c5)C(=O)N(CC#N)CC6)coc4c3)cn2)CC1 [Compound 55, 2-(8-(difluoromethoxy)-6-(6-(1-(1-methylpiperidin-4-yl)-1H-pyrazol-4-yl)benzofuran-3-yl)-1-oxo-3,4-dihydroisoquinolin-2 (1H)-yl) acetonitrile] | 18 | 301 | 3.9
5 | CN1CC(COc2cc(-c3coc4cc(OCCN5CCCC5)ccc34)cc(OC(F)F)c2C(=O)NC2CC2)C1 [Compound 115, N-cyclopropyl-2-(difluoromethoxy)-6-((1-methylazetidin-3-yl)methoxy)-4-(6-(2-(pyrrolidin-1-yl)ethoxy)benzofuran-3-yl)benzamide] | 4240 | > 10000 | 582
6 | COc1cc(-c2coc3cc(OCCN4CCCC4)ccc23)cc(OC(F)F)c1C(=O)NC1CCCCC1N (racemic) [Compound 124, N-(2-aminocyclohexyl)-2-(difluoromethoxy)-6-methoxy-4-(6-(2-(pyrrolidin-1-yl)ethoxy)benzofuran-3-yl)benzamide] | 161 | 1220 | 18
7 | COc1cc(-c2coc3cc(OCCN4CCC(C(F)(F)F)C4)ccc23)cc(OC(F)F)c1C(=O)N[C@@H]1C[C@@H]1F (stereo partly drawn) [Compound 76, 2-(difluoromethoxy)-N-((1R,2S)-2-fluorocyclopropyl)-6-methoxy-4-(6-(2-(3-(trifluoromethyl)pyrrolidin-1-yl)ethoxy)benzofuran-3-yl)benzamide] | 34 | 1010 | 34
8 | CN1CCC(n2cc(-c3ccc4c(-c5cc6c(c(OC(F)F)c5)C(=O)N(CC(F)(F)F)CC6)coc4c3)cn2)CC1 [Compound 46, 8-(difluoromethoxy)-6-(6-(1-(1-methylpiperidin-4-yl)-1H-pyrazol-4-yl)benzofuran-3-yl)-2-(2,2,2-trifluoroethyl)-3,4-dihydroisoquinolin-1 (2H)-one] | 36.1 | 430 | 7.8
9 | COc1cc(-c2coc3cc(OCCN4CCC[C@H]4C)ccc23)cc(OC(F)F)c1C(=O)N[C@@H]1C[C@@H]1F [Compound 77, 2-(difluoromethoxy)-N-((1R,2S)-2-fluorocyclopropyl)-6-methoxy-4-(6-(2-((R)-2-methylpyrrolidin-1-yl)ethoxy)benzofuran-3-yl)benzamide] | 80 | 3370 | 27
10 | COc1cc(-c2coc3cc(-c4cnn(C(C)C)c4)ccc23)cc2c1C(=O)N(CC(F)(F)F)CC2 [Example 3, 6-(6-(1-isopropyl-1H-pyrazol-4-yl)benzofuran-3-yl)-8-methoxy-2-(2,2,2-trifluoroethyl)-3,4-dihydroisoquinolin-1 (2H)-one] | 42 | 476 | 28
11 | COc1cc(-c2coc3cc(OCCN4CCCC4)ccc23)cc(OC(F)F)c1C(=O)NC1CCCCC1 [Compound 127, N-cyclohexyl-2-(difluoromethoxy)-6-methoxy-4-(6-(2-(pyrrolidin-1-yl)ethoxy)benzofuran-3-yl)benzamide] | 2900 | > 10000 | 619
12 | COc1cc(-c2coc3cc(-c4cnn(C)c4)ccc23)cc2c1C(=O)N(CC(F)(F)F)[C@H](C)C2 [Compound 29B, (R)-8-methoxy-3-methyl-6-(6-(1-methyl-1H-pyrazol-4-yl)benzofuran-3-yl)-2-(2,2,2-trifluoroethyl)-3,4-dihydroisoquinolin-1 (2H)-one] | 374 | 5980 | 178
13 | O=C(NC1CC1)c1c(NCCO)cc(-c2coc3cc(OCCN4CCCC4)ccc23)cc1OC(F)F [Compound 104, N-cyclopropyl-2-(difluoromethoxy)-6-((2-hydroxyethyl)amino)-4-(6-(2-(pyrrolidin-1-yl)ethoxy)benzofuran-3-yl)benzamide] | 211 | 4580 | 52
14 | COc1cc(-c2coc3cc(-c4ccc(C)nn4)ccc23)cc2c1C(=O)N(CC(F)(F)F)CC2 [Example 8, 8-methoxy-6-(6-(6-methylpyridazin-3-yl)benzofuran-3-yl)-2-(2,2,2-trifluoroethyl)-3,4-dihydroisoquinolin-1 (2H)-one] | 304 | > 10000 | 197
15 | CN1CC[C@H]1COc1cc(-c2coc3cc(OCCN4CCCC4)ccc23)cc(OC(F)F)c1C(=O)NC1CC1 [Compound 117, (S)—N-cyclopropyl-2-(difluoromethoxy)-6-((1-methylazetidin-2-yl)methoxy)-4-(6-(2-(pyrrolidin-1-yl)ethoxy)benzofuran-3-yl)benzamide] | > 10000 | > 10000 | 2940
16 | COc1cc(-c2coc3cc(-c4cnn(C5CC5)c4)ccc23)cc2c1C(=O)N(CC(F)(F)F)CC2 [Example 4, 6-(6-(1-cyclopropyl-1H-pyrazol-4-yl)benzofuran-3-yl)-8-methoxy-2-(2,2,2-trifluoroethyl)-3,4-dihydroisoquinolin-1 (2H)-one] | 53 | 728 | 37
